We go through 29 compounds from patent US12540129B2, “KIF18A inhibitors” (AMGEN INC., priority 2019, dated 2026).

pIC50: −log10 of the molar value.

The target of this assay is T1, Recombinant human KIF18A (1-467 His-tagged) protein (Homo sapiens, UniProt Q8NI77).
T1 construct: Recombinant human KIF18A (1-467 His-tagged) protein; His; made in house
T1 sequence (Q8NI77 1-467): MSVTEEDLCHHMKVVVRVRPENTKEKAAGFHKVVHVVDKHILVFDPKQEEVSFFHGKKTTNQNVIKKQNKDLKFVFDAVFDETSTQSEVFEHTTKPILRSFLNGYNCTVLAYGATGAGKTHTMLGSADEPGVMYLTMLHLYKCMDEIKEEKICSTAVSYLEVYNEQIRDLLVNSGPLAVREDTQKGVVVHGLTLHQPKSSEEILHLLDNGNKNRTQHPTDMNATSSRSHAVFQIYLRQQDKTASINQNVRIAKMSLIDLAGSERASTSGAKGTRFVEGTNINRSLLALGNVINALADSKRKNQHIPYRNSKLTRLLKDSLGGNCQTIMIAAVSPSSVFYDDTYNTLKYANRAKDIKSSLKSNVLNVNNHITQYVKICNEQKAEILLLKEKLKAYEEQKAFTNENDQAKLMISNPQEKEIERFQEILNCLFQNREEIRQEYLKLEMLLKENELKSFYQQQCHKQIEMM
T1 sequence (P02550 whole entry partner): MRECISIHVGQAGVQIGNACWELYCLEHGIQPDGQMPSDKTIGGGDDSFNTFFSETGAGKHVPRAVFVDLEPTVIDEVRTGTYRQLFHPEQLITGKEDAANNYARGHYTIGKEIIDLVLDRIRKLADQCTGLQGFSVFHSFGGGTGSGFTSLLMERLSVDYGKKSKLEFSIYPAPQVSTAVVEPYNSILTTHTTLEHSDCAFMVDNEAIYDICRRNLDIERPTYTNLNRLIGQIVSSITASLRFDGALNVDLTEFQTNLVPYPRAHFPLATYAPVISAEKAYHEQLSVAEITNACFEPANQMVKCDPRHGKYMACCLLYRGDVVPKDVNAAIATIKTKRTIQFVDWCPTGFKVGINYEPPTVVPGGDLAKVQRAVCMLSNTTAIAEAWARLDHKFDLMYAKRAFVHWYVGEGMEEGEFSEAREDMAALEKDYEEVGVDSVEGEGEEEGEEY
T1 sequence (P02554 whole entry partner): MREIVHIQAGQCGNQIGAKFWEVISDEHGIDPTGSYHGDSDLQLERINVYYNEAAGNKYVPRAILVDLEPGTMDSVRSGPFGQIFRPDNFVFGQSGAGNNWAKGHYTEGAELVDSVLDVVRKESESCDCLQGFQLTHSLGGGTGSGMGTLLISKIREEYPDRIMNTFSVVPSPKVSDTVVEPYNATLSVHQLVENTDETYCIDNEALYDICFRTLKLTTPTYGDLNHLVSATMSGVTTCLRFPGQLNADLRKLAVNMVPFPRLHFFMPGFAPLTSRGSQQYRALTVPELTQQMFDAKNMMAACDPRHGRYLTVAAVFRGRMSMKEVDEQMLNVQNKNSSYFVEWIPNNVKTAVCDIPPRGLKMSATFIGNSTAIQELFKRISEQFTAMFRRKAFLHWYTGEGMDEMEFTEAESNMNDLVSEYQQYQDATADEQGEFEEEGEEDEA
Put plainly: KIF18A Enzyme Assay: microtubule-stimulated ATPase activity (ADP-Glo). The settings on record: 30 nM KIF18A, 75 μM ATP. The format is biochemical. In short, it runs like this: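 ADP-Glo luminescence reports ADP produced by His-tagged human KIF18A motor domain (1-467, insect-cell expressed) with microtubules and ATP.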
(In general: ADP-Glo first removes unused ATP, then detects ADP through luciferase.)
As usually defined, the pIC50 is the IC50 on a negative log10 scale, so that one unit is a factor of ten. `COc1ccc(NC(=O)c2ccc(NC(C)(C)CO)nc2N2CCC3(CC2)CC3)cc1S(=O)(=O)NC(C)(C)C` [Example 105-20, N-(3-(N-(tert-butyl)sulfamoyl)-4-methoxyphenyl)-6-((1-hydroxy-2-methylpropan-2-yl)amino)-2-(6-azaspiro[2.5]octan-6-yl)nicotinamide]: the pIC50 was 6.79.

Regarding `CC(C)(C)NS(=O)(=O)c1cc(F)cc(NC(=O)c2ccc(NC(C)(C)CO)nc2N2CCC3(CC2)CC3)c1` [Example 105-21, N-(3-(N-(tert-butyl)sulfamoyl)-5-fluorophenyl)-6-((1-hydroxy-2-methylpropan-2-yl)amino)-2-(6-azaspiro[2.5]octan-6-yl)nicotinamide], the pIC50 is 6.97. The result for `COc1cc(NC(=O)c2ccc(NC(C)(C)CO)nc2N2CCC3(CC2)CC3)cc(S(=O)(=O)NC(C)(C)C)c1` [Example 105-22, N-(3-(N-(tert-butyl)sulfamoyl)-5-methoxyphenyl)-6-((1-hydroxy-2-methylpropan-2-yl)amino)-2-(6-azaspiro[2.5]octan-6-yl)nicotinamide] reads 6.87; that for `CC(C)(C)NS(=O)(=O)c1cccc(NC(=O)c2ccc(NC(C)(C)CO)nc2N2CCC3(CC2)CC3)c1F` [Example 105-23, N-(3-(N-(tert-butyl)sulfamoyl)-2-fluorophenyl)-6-((1-hydroxy-2-methylpropan-2-yl)amino)-2-(6-azaspiro[2.5]octan-6-yl)nicotinamide], 6.75. The result for `CC(C)(C)NS(=O)(=O)c1cc(Br)cc(NC(=O)c2ccc(NC(C)(C)CO)nc2N2CCC3(CC2)CC3)c1` [Example 105-24, N-(3-bromo-5-(N-(tert-butyl)sulfamoyl)phenyl)-6-((1-hydroxy-2-methylpropan-2-yl)amino)-2-(6-azaspiro[2.5]octan-6-yl)nicotinamide] reads 6.84; that for `CC(C)(C)NC(=O)c1cccc(NC(=O)c2ccc(NC(C)(C)CO)nc2N2CCC3(CC2)CC3)c1` [Example 105-25, N-(3-(tert-butylcarbamoyl)phenyl)-6-((1-hydroxy-2-methylpropan-2-yl)amino)-2-(6-azaspiro[2.5]octan-6-yl)nicotinamide], 6.50. In the case of `CC(C)(CO)Nc1ccc(C(=O)Nc2cccc(N3CCCC3)c2)c(N2CCC3(CC2)CC3)n1` [Example 105-26, 6-((1-hydroxy-2-methylpropan-2-yl)amino)-N-(3-(pyrrolidin-1-yl)phenyl)-2-(6-azaspiro[2.5]octan-6-yl)nicotinamide], the pIC50 is 6.63.

As for `CC(C)(CO)Nc1ccc(C(=O)Nc2cccc(N3CCOCC3)c2)c(N2CCC3(CC2)CC3)n1` [Example 105-27, 6-((1-hydroxy-2-methylpropan-2-yl)amino)-N-(3-morpholinophenyl)-2-(6-azaspiro[2.5]octan-6-yl)nicotinamide], the pIC50 was 6.58. The result for `CC(C)(CO)Nc1ccc(C(=O)Nc2cccc(N3CCS(=O)(=O)CC3)c2)c(N2CCC3(CC2)CC3)n1` [Example 105-28, N-(3-(1,1-dioxidothiomorpholino)phenyl)-6-((1-hydroxy-2-methylpropan-2-yl)amino)-2-(6-azaspiro[2.5]octan-6-yl)nicotinamide] reads 6.79; that for `Cc1ccc(NC(=O)c2ccc(NC(C)(C)CO)nc2N2CCC3(CC2)CC3)cc1N1CCCC1=O` [Example 105-29, 6-((1-hydroxy-2-methylpropan-2-yl)amino)-N-(4-methyl-3-(2-oxopyrrolidin-1-yl)phenyl)-2-(6-azaspiro[2.5]octan-6-yl)nicotinamide], 6.55; that for `Cc1ccc(NC(=O)c2ccc(NC(C)(C)CO)nc2N2CCC3(CC2)CC3)cc1N1CCOCC1` [Example 105-30, 6-((1-hydroxy-2-methylpropan-2-yl)amino)-N-(4-methyl-3-morpholinophenyl)-2-(6-azaspiro[2.5]octan-6-yl)nicotinamide], 6.58. To `C[C@@H]1CN(c2cc(NC(=O)c3ccc(NC(C)(C)CO)nc3N3CCC4(CC3)CC4)ccc2F)CCO1` [Example 105-31, (R)-N-(4-fluoro-3-(2-methylmorpholino)phenyl)-6-((1-hydroxy-2-methylpropan-2-yl)amino)-2-(6-azaspiro[2.5]octan-6-yl)nicotinamide] belongs 6.70; to `C[C@@H]1CN(c2cc(F)cc(NC(=O)c3ccc(NC(C)(C)CO)nc3N3CCC4(CC3)CC4)c2)CCO1` [Example 105-32, (R)-N-(3-fluoro-5-(2-methylmorpholino)phenyl)-6-((1-hydroxy-2-methylpropan-2-yl)amino)-2-(6-azaspiro[2.5]octan-6-yl)nicotinamide], 6.68; to `O=C(Nc1cccc(S(=O)(=O)C2CCCC2)c1)c1ccc(NC(CO)CO)nc1N1CCC2(CC1)CC2` [Example 106, N-(3-(Cyclopentylsulfonyl)phenyl)-6-((1,3-dihydroxypropan-2-yl)amino)-2-(6-azaspiro[2.5]octan-6-yl)nicotinamide], 7.27. Turning to `CC1(NS(=O)(=O)c2cccc(NC(=O)c3ccc(NC(CO)CO)nc3N3CCC4(CC3)CC4)c2)CCC1` [Example 106-1, 6-((1,3-dihydroxypropan-2-yl)amino)-N-(3-(N-(1-methylcyclobutyl)sulfamoyl)phenyl)-2-(6-azaspiro[2.5]octan-6-yl)nicotinamide], the pIC50 is 7.11. On to `CC(C)(C)NS(=O)(=O)c1cccc(NC(=O)c2ccc(NC(CO)CO)nc2N2CCC3(CC2)CC3)c1` [Example 106-2, N-(3-(N-(tert-butyl)sulfamoyl)phenyl)-6-((1,3-dihydroxypropan-2-yl)amino)-2-(6-azaspiro[2.5]octan-6-yl)nicotinamide], for which the negative logarithm of the IC50 (pIC50) is 6.96. Take `CC(CO)(CO)Nc1ccc(C(=O)Nc2cccc(S(=O)(=O)C3CCCC3)c2)c(N2CCC3(CC2)CC3)n1` [Example 106-3, N-(3-(cyclopentylsulfonyl)phenyl)-6-((1,3-dihydroxy-2-methylpropan-2-yl)amino)-2-(6-azaspiro[2.5]octan-6-yl)nicotinamide]: the pIC50 is 7.41. As to `Cc1ccc(NC(=O)c2ccc(NC(C)(CO)CO)nc2N2CCC3(CC2)CC3)cc1S(=O)(=O)C1CCCC1` [Example 106-4, N-(3-(cyclopentylsulfonyl)-4-methylphenyl)-6-((1,3-dihydroxy-2-methylpropan-2-yl)amino)-2-(6-azaspiro[2.5]octan-6-yl)nicotinamide], the pIC50 is 7.40. For `CC(C)(C)NS(=O)(=O)c1cccc(NC(=O)c2ccc(NC(C)(CO)CO)nc2N2CCC3(CC2)CC3)c1` [Example 106-5, N-(3-(N-(tert-butyl)sulfamoyl)phenyl)-6-((1,3-dihydroxy-2-methylpropan-2-yl)amino)-2-(6-azaspiro[2.5]octan-6-yl)nicotinamide], the pIC50 is 7.28.

`CC(CO)(CO)Nc1ccc(C(=O)Nc2cccc(S(=O)(=O)NC3CC3)c2)c(N2CCC3(CC2)CC3)n1` [Example 106-6, N-(3-(N-cyclopropylsulfamoyl)phenyl)-6-((1,3-dihydroxy-2-methylpropan-2-yl)amino)-2-(6-azaspiro[2.5]octan-6-yl)nicotinamide]: the pIC50 was 7.32. With `CC(O)(c1ccc(C(=O)Nc2cccc(S(=O)(=O)NC3CC3)c2)c(N2CCC3(CC2)CC3)n1)C(F)(F)F` (centres unmarked) [Example 108-1, N-(3-(N-cyclopropylsulfamoyl)phenyl)-2-(6-azaspiro[2.5]octan-6-yl)-6-(1,1,1-trifluoro-2-hydroxypropan-2-yl)nicotinamide], the pIC50 is 7.28.

For `CC(O)(c1ccc(C(=O)Nc2cccc(S(=O)(=O)C3CCCC3)c2)c(N2CCC3(CC2)CC3)n1)C(F)(F)F` (centres unmarked) [Example 108-2, N-(3-(cyclopentylsulfonyl)phenyl)-2-(6-azaspiro[2.5]octan-6-yl)-6-(1,1,1-trifluoro-2-hydroxypropan-2-yl)nicotinamide], the pIC50 is 7.19. To `CC(C)(C)NS(=O)(=O)c1cccc(NC(=O)c2ccc(NS(C)(=O)=O)nc2N2CCC3(CC2)CC3)c1` [Example 110, N-(3-(N-(tert-butyl)sulfamoyl)phenyl)-6-(methylsulfonamido)-2-(6-azaspiro[2.5]octan-6-yl)nicotinamide] belongs 7.04; to `Cc1ccc(NC(=O)c2ccc(NC(C)(C)CO)nc2N2CCC3(CC2)CC3)cc1-c1ccoc1` [Example 111-1, N-(3-(furan-3-yl)-4-methylphenyl)-6-((1-hydroxy-2-methylpropan-2-yl)amino)-2-(6-azaspiro[2.5]octan-6-yl)nicotinamide], 6.58; to `Cc1ccc(NC(=O)c2ccc(NC(C)(C)CO)nc2N2CCC3(CC2)CC3)cc1-c1ccco1` [Example 111-2, N-(3-(furan-2-yl)-4-methylphenyl)-6-((1-hydroxy-2-methylpropan-2-yl)amino)-2-(6-azaspiro[2.5]octan-6-yl)nicotinamide], 6.56.

`Cc1ccc(NC(=O)c2ccc(NC(C)(C)CO)nc2N2CCC3(CC2)CC3)cc1-c1cc[nH]n1` [Example 111-3, 6-((1-hydroxy-2-methylpropan-2-yl)amino)-N-(4-methyl-3-(1H-pyrazol-3-yl)phenyl)-2-(6-azaspiro[2.5]octan-6-yl)nicotinamide]: the pIC50 is 6.47.

`Cc1ccc(NC(=O)c2ccc(NC(C)(C)CO)nc2N2CCC3(CC2)CC3)cc1-c1nccs1` [Example 111-4, 6-((1-hydroxy-2-methylpropan-2-yl)amino)-N-(4-methyl-3-(thiazol-2-yl)phenyl)-2-(6-azaspiro[2.5]octan-6-yl)nicotinamide]: the pIC50 is 6.46. For `Cc1coc(-c2cccc(NC(=O)c3ccc(NC(C)(C)CO)nc3N3CCC4(CC3)CC4)c2)n1` [Example 111-5, 6-((1-hydroxy-2-methylpropan-2-yl)amino)-N-(3-(4-methyloxazol-2-yl)phenyl)-2-(6-azaspiro[2.5]octan-6-yl)nicotinamide], the pIC50 was 6.65.

On to `Cc1cnc(-c2cccc(NC(=O)c3ccc(NC(C)(C)CO)nc3N3CCC4(CC3)CC4)c2)o1` [Example 111-6, 6-((1-hydroxy-2-methylpropan-2-yl)amino)-N-(3-(5-methyloxazol-2-yl)phenyl)-2-(6-azaspiro[2.5]octan-6-yl)nicotinamide], for which the pIC50 was 6.87.
